Measurements: PubChem BioAssay (NCI)
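Grown in 96-well plates, cells were treated for 48 hours with each compound at five concentrations. Insufficient inhibition: endpoint recorded as highest concentration tested. GI50 is the concentration that inhibits growth by half. TGI denotes the concentration required for complete inhibition of growth.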

Experiments:
Test in all cases: growth of human tumour cells (NCI), 48 h
786-0 renal = test system: 786-0 renal
A498 renal = test system: A498 renal
A549 NSCLC = test system: A549 NSCLC
ACHN renal = test system: ACHN renal
BT-549 breast = test system: BT-549 breast
CAKI-1 renal = test system: CAKI-1 renal
CCRF-CEM leukemia = test system: CCRF-CEM leukemia
COLO 205 colon = test system: COLO 205 colon
DU-145 prostate = test system: DU-145 prostate
EKVX NSCLC = test system: EKVX NSCLC
HCC-2998 colon = test system: HCC-2998 colon
HCT-116 colon = test system: HCT-116 colon
HCT-15 colon = test system: HCT-15 colon
HL-60(TB) leukemia = test system: HL-60(TB) leukemia
HOP-62 NSCLC = test system: HOP-62 NSCLC
HS 578T breast = test system: HS 578T breast
HT29 colon = test system: HT29 colon
IGROV1 ovarian = test system: IGROV1 ovarian
K-562 leukemia = test system: K-562 leukemia
KM12 colon = test system: KM12 colon
LOX IMVI melanoma = test system: LOX IMVI melanoma
M14 melanoma = test system: M14 melanoma
MCF7 breast = test system: MCF7 breast
MDA-MB-231 breast = test system: MDA-MB-231 breast
MDA-MB-435 = test system: MDA-MB-435
MOLT-4 leukemia = test system: MOLT-4 leukemia
NCI-H226 lung = test system: NCI-H226 lung
NCI-H23 lung = test system: NCI-H23 lung
NCI-H460 lung = test system: NCI-H460 lung
NCI-H522 lung = test system: NCI-H522 lung
NCI/ADR-RES ovarian = test system: NCI/ADR-RES ovarian
OVCAR-3 ovarian = test system: OVCAR-3 ovarian
OVCAR-4 ovarian = test system: OVCAR-4 ovarian
OVCAR-5 ovarian = test system: OVCAR-5 ovarian
OVCAR-8 ovarian = test system: OVCAR-8 ovarian
PC-3 prostate = test system: PC-3 prostate
RPMI-8226 leukemia = test system: RPMI-8226 leukemia
RXF 393 renal = test system: RXF 393 renal
SF-268 CNS = test system: SF-268 CNS
SF-295 CNS = test system: SF-295 CNS
SF-539 CNS = test system: SF-539 CNS
SK-MEL-2 melanoma = test system: SK-MEL-2 melanoma
SK-MEL-28 melanoma = test system: SK-MEL-28 melanoma
SK-MEL-5 melanoma = test system: SK-MEL-5 melanoma
SK-OV-3 ovarian = test system: SK-OV-3 ovarian
SN12C renal = test system: SN12C renal
SNB-19 CNS = test system: SNB-19 CNS
SNB-75 CNS = test system: SNB-75 CNS
SR leukemia = test system: SR leukemia
SW-620 colon = test system: SW-620 colon
TK-10 renal = test system: TK-10 renal
U251 CNS = test system: U251 CNS
UACC-257 melanoma = test system: UACC-257 melanoma
UACC-62 melanoma = test system: UACC-62 melanoma
UO-31 renal = test system: UO-31 renal

For O=C1OCC2=C1C(c1cccc(Cl)c1)c1cc3c(cc1N2CCO)OCO3 (configuration not stated), the GI50 (786-0 renal) was 558 nM, the TGI (786-0 renal) was > 41800 nM and the GI50 (A498 renal) was 230 nM. For the same molecule, the TGI (A498 renal) was 2550 nM, the GI50 (A549 NSCLC) was 498 nM and the TGI (A549 NSCLC) was 33500 nM. For the same molecule, the GI50 (ACHN renal) was 785 nM, the TGI (ACHN renal) was > 100000 nM and the GI50 (BT-549 breast) was 603 nM. For the same molecule, the GI50 (CAKI-1 renal) was 216 nM, the TGI (CAKI-1 renal) was 22600 nM and the GI50 (CCRF-CEM leukemia) was 527 nM. For the same molecule, the TGI (CCRF-CEM leukemia) was > 100000 nM, the GI50 (COLO 205 colon) was 360 nM and the TGI (COLO 205 colon) was 1380 nM. It also gave a GI50 (DU-145 prostate) of 512 nM, a TGI (DU-145 prostate) of 16900 nM and a GI50 (EKVX NSCLC) of 2590 nM. The TGI (EKVX NSCLC) was > 87200 nM, the GI50 (HCC-2998 colon) was 1070 nM and the TGI (HCC-2998 colon) was 14300 nM. The GI50 (HCT-116 colon) was 466 nM, the TGI (HCT-116 colon) was > 36300 nM and the GI50 (HCT-15 colon) was 428 nM. For the same molecule, the TGI (HCT-15 colon) was > 100000 nM, the GI50 (HL-60(TB) leukemia) was 328 nM and the TGI (HL-60(TB) leukemia) was 3700 nM. For the same molecule, the GI50 (HOP-62 NSCLC) was 481 nM, the TGI (HOP-62 NSCLC) was 57700 nM and the GI50 (HS 578T breast) was 445 nM. The TGI (HS 578T breast) was > 58200 nM, the GI50 (HT29 colon) was 364 nM and the TGI (HT29 colon) was 4730 nM. For the same molecule, the GI50 (IGROV1 ovarian) was 2790 nM, the TGI (IGROV1 ovarian) was > 74400 nM and the GI50 (K-562 leukemia) was 354 nM. The TGI (K-562 leukemia) was > 100000 nM, the GI50 (KM12 colon) was 398 nM and the TGI (KM12 colon) was 29600 nM. The GI50 (LOX IMVI melanoma) was 600 nM, the TGI (LOX IMVI melanoma) was 27000 nM and the GI50 (M14 melanoma) was 360 nM. For the same molecule, the TGI (M14 melanoma) was > 22500 nM, the GI50 (MCF7 breast) was 313 nM and the TGI (MCF7 breast) was > 100000 nM. The GI50 (MDA-MB-231 breast) was 1660 nM, the TGI (MDA-MB-231 breast) was 14400 nM and the GI50 (MDA-MB-435) was 38.3 nM. For the same molecule, the TGI (MDA-MB-435) was 233 nM, the GI50 (MOLT-4 leukemia) was 1140 nM and the TGI (MOLT-4 leukemia) was 97800 nM. The GI50 (NCI-H226 lung) was 753 nM, the TGI (NCI-H226 lung) was 20000 nM and the GI50 (NCI-H23 lung) was 502 nM. The TGI (NCI-H23 lung) was > 100000 nM, the GI50 (NCI-H460 lung) was 414 nM and the TGI (NCI-H460 lung) was > 35300 nM. It also gave a GI50 (NCI-H522 lung) of 228 nM, a TGI (NCI-H522 lung) of 16200 nM and a GI50 (NCI/ADR-RES ovarian) of 301 nM. For the same molecule, the TGI (NCI/ADR-RES ovarian) was > 41000 nM, the GI50 (OVCAR-3 ovarian) was 270 nM and the TGI (OVCAR-3 ovarian) was 811 nM. For the same molecule, the GI50 (OVCAR-4 ovarian) was 696 nM, the TGI (OVCAR-4 ovarian) was > 100000 nM and the GI50 (OVCAR-5 ovarian) was 1260 nM. For the same molecule, the TGI (OVCAR-5 ovarian) was > 100000 nM, the GI50 (OVCAR-8 ovarian) was 503 nM and the TGI (OVCAR-8 ovarian) was > 65800 nM. For the same molecule, the GI50 (PC-3 prostate) was 381 nM, the TGI (PC-3 prostate) was > 43700 nM and the GI50 (RPMI-8226 leukemia) was 535 nM. For the same molecule, the TGI (RPMI-8226 leukemia) was 35800 nM, the GI50 (RXF 393 renal) was 278 nM and the GI50 (SF-268 CNS) was 700 nM. The TGI (SF-268 CNS) was 34600 nM, the GI50 (SF-295 CNS) was 260 nM and the TGI (SF-295 CNS) was 22400 nM. The GI50 (SF-539 CNS) was 303 nM, the GI50 (SK-MEL-2 melanoma) was 2440 nM and the TGI (SK-MEL-2 melanoma) was > 44300 nM. The GI50 (SK-MEL-28 melanoma) was 755 nM, the TGI (SK-MEL-28 melanoma) was > 100000 nM and the GI50 (SK-MEL-5 melanoma) was 256 nM. The TGI (SK-MEL-5 melanoma) was 12500 nM, the GI50 (SK-OV-3 ovarian) was 412 nM and the TGI (SK-OV-3 ovarian) was 10500 nM. For the same molecule, the GI50 (SN12C renal) was 817 nM, the TGI (SN12C renal) was > 63700 nM and the GI50 (SNB-19 CNS) was 784 nM. The TGI (SNB-19 CNS) was > 100000 nM, the GI50 (SNB-75 CNS) was 281 nM and the TGI (SNB-75 CNS) was > 100000 nM. The GI50 (SR leukemia) was 359 nM, the TGI (SR leukemia) was 70400 nM and the GI50 (SW-620 colon) was 358 nM. The TGI (SW-620 colon) was > 100000 nM, the GI50 (TK-10 renal) was 17700 nM and the TGI (TK-10 renal) was > 100000 nM. The GI50 (U251 CNS) was 383 nM, the TGI (U251 CNS) was 17700 nM and the GI50 (UACC-257 melanoma) was 256 nM. For the same molecule, the TGI (UACC-257 melanoma) was > 44500 nM, the GI50 (UACC-62 melanoma) was 360 nM and the TGI (UACC-62 melanoma) was > 44600 nM. For the same molecule, the GI50 (UO-31 renal) was 465 nM and the TGI (UO-31 renal) was > 65400 nM.
